Values joined by “and” are separate entries in the source; they are usually repeats but may differ in a detail not shown here. Equal entries are not always repeated. Inconclusive results and toxic doses are left out. Cut-off read from the data, not from the text of the source: active = T/C of 150% or more; inactive = T/C below 125%.
Test system: L1210 leukemia ip in BDF1 mice, survival T/C
Experiment: NCI In Vivo Anticancer Drug Screen. Data for tumor model L1210 Leukemia (intraperitoneal) in B6D2F1 (BDF1) mice
Details: endpoint: mean survival time, higher = longer survival
How it was run: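 Transplanted-tumor mice were given test agent; controls received vehicle only. Survival readings from the two groups were divided (treated over control).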

[1] = dose: 100.0 mg/kg/injection, schedule: Q01DX009 (ip), vehicle: Klucel (hydroxypropylcellulose) (HPC)
[2] = dose: 200.0 mg/kg/injection, schedule: Q01DX009 (ip), vehicle: Klucel (hydroxypropylcellulose) (HPC)
[3] = dose: 100.0 mg/kg/injection, schedule: Q04DX003 (ip), vehicle: saline with Tween-80
[4] = dose: 200.0 mg/kg/injection, schedule: Q04DX003 (ip), vehicle: saline with Tween-80
[5] = dose: 400.0 mg/kg/injection, schedule: Q04DX003 (ip), vehicle: saline with Tween-80
[6] = dose: 100.0 mg/kg/injection, schedule: Q04DX002 (ip), vehicle: saline with Tween-80
[7] = dose: 200.0 mg/kg/injection, schedule: Q04DX002 (ip), vehicle: saline with Tween-80
[8] = dose: 400.0 mg/kg/injection, schedule: Q04DX002 (ip), vehicle: saline with Tween-80
[9] = dose: 100.0 mg/kg/injection, schedule: Q04DX003 (ip), vehicle: acetone
[10] = dose: 200.0 mg/kg/injection, schedule: Q04DX003 (ip), vehicle: acetone
[11] = dose: 25.0 mg/kg/injection, schedule: Q01DX Z (ip), vehicle: carboxymethylcellulose (CMC)
[12] = dose: 50.0 mg/kg/injection, schedule: Q01DX Z (ip), vehicle: carboxymethylcellulose (CMC)
[13] = dose: 100.0 mg/kg/injection, schedule: Q04DX002 (ip), vehicle: Klucel (hydroxypropylcellulose) (HPC)
[14] = dose: 200.0 mg/kg/injection, schedule: Q04DX002 (ip), vehicle: Klucel (hydroxypropylcellulose) (HPC)
[15] = dose: 400.0 mg/kg/injection, schedule: Q04DX002 (ip), vehicle: Klucel (hydroxypropylcellulose) (HPC)
[16] = dose: 100.0 mg/kg/injection, schedule: Q01DX001 (ip), vehicle: saline
[17] = dose: 200.0 mg/kg/injection, schedule: Q01DX001 (ip), vehicle: saline
[18] = dose: 400.0 mg/kg/injection, schedule: Q01DX001 (ip), vehicle: saline
[19] = dose: 100.0 mg/kg/injection, schedule: Q01DX009 (ip), vehicle: saline with Tween-80
[20] = dose: 200.0 mg/kg/injection, schedule: Q01DX009 (ip), vehicle: saline with Tween-80
[21] = dose: 100.0 mg/kg/injection, schedule: Q04DX003 (ip), vehicle: Klucel (hydroxypropylcellulose) (HPC)
[22] = dose: 200.0 mg/kg/injection, schedule: Q04DX003 (ip), vehicle: Klucel (hydroxypropylcellulose) (HPC)
[23] = dose: 400.0 mg/kg/injection, schedule: Q04DX003 (ip), vehicle: Klucel (hydroxypropylcellulose) (HPC)

Measured: T/C

C=CS(=O)(=O)c1ccc(N)cc1
inactive: [1] 103 % of control | [2] 95 % of control

COC(=O)CC/C(C)=N\NC(=O)c1ccc[n+](C)c1
inactive: dose: 50.0 mg/kg/injection, schedule: Q01DX009 (ip), vehicle: saline 100 % of control | dose: 100.0 mg/kg/injection, schedule: Q01DX009 (ip), vehicle: saline 96 % of control | dose: 200.0 mg/kg/injection, schedule: Q01DX009 (ip), vehicle: saline 93 % of control

CN(C)C(=NN=C(N(C)C)N(C)C)N(C)C
inactive: dose: 12.5 mg/kg/injection, schedule: Q04DX003 (sc), vehicle: saline 102 % of control | dose: 25.0 mg/kg/injection, schedule: Q04DX003 (sc), vehicle: saline 107 % of control | dose: 50.0 mg/kg/injection, schedule: Q04DX003 (sc), vehicle: saline 100 % of control | dose: 100.0 mg/kg/injection, schedule: Q04DX003 (sc), vehicle: saline 98 % of control

Cc1ccc(NC2CNC(=O)NC2=O)cc1C (stereo not given)
inactive: dose: 100.0 mg/kg/injection, schedule: Q01DX Z (ip), vehicle: saline 91 % of control | dose: 200.0 mg/kg/injection, schedule: Q01DX Z (ip), vehicle: saline 87 % of control

CCOC(=O)C(Cc1ccccc1)C(=O)OCC
inactive: [3] 96 % of control | [4] 97 % of control | [5] 96 % of control

Cc1ccccc1NC(=S)NCCC(=O)O
inactive: [6] 105 % of control | [7] 97 % of control | [8] 97 % of control

CCCCCCCCCCCCCCCCOC(=O)C[n+]1ccc(C(N)=O)cc1
inactive: [9] 97 % of control | [10] 90 % of control

CCCCNc1ncnc2c1ncn2C1OC(CO)C(O)C1O (stereo not given)
inactive: dose: 50.0 mg/kg/injection, schedule: Q01DX005 (ip), vehicle: saline 105 % of control

CCCCN(CCCC)CCCCCN
inactive: [11] 106 % of control | [12] 86 % of control | dose: 100.0 mg/kg/injection, schedule: Q01DX Z (ip), vehicle: carboxymethylcellulose (CMC) 90 % of control

O=C(O)c1cccc(N2C(=O)CSC2=S)c1
inactive: dose: 25.0 mg/kg/injection, schedule: Q04DX002 (ip), vehicle: Klucel (hydroxypropylcellulose) (HPC) 94 % of control | dose: 50.0 mg/kg/injection, schedule: Q04DX002 (ip), vehicle: Klucel (hydroxypropylcellulose) (HPC) 93 % of control and 91 % of control | [13] 93 % of control and 102 % of control | [14] 88 % of control

O=C(OCc1ccccc1CN1CCCC1)c1ccc(Br)cc1
inactive: [13] 111 % of control | [14] 90 % of control | [15] 96 % of control

O=C(COc1ccc(Cl)c(Cl)c1)NCc1ccc[n+](Cc2ccc(Cl)cc2S(=O)(=O)F)c1
inactive: [3] 100 % of control | [4] 106 % of control

CC(C)(CO)NC(=O)COc1ccc(Cl)cc1Cl
inactive: [6] 102 % of control | [7] 94 % of control | [8] 94 % of control

CNC(=O)c1nc(C)c(C)[nH]c1=O
inactive: dose: 25.0 mg/kg/injection, schedule: Q01DX009 (ip), vehicle: water 98 % of control | dose: 50.0 mg/kg/injection, schedule: Q01DX009 (ip), vehicle: water 96 % of control | dose: 100.0 mg/kg/injection, schedule: Q01DX009 (ip), vehicle: water 98 % of control | dose: 100.0 mg/kg/injection, schedule: Q04DX003 (ip), vehicle: water 103 % of control | dose: 200.0 mg/kg/injection, schedule: Q01DX009 (ip), vehicle: water 89 % of control | dose: 200.0 mg/kg/injection, schedule: Q04DX003 (ip), vehicle: water 95 % of control

CO/N=C(/c1ccccc1)c1cccc[n+]1C
inactive: dose: 18.8 mg/kg/injection, schedule: Q04DX003 (ip), vehicle: saline 100 % of control | dose: 37.5 mg/kg/injection, schedule: Q04DX003 (ip), vehicle: saline 103 % of control

CC1=NN(C)C(=O)C1
inactive: dose: 50.0 mg/kg/injection, schedule: Q01DX001 (ip), vehicle: saline 103 % of control | [16] 103 % of control | [17] 103 % of control | [18] 103 % of control

CC1(c2ccco2)C(=O)NC(=O)N1C(=O)CCl (stereo not given)
inactive: [19] 112 % of control | [3] 96 % of control | [20] 101 % of control | [4] 103 % of control | [5] 101 % of control

COc1ccc(C(=O)CCCCl)c(OC)c1
inactive: [19] 95 % of control | [3] 89 % of control | [20] 93 % of control | [4] 96 % of control | dose: 400.0 mg/kg/injection, schedule: Q01DX009 (ip), vehicle: saline with Tween-80 93 % of control | [5] 91 % of control

O=C1OCC/C1=C\OCCc1ccccc1
inactive: [13] 98 % of control | [14] 94 % of control | [15] 94 % of control

CNCC(O)c1ccccc1 (stereo not given)
inactive: [16] 96 % of control | dose: 100.0 mg/kg/injection, schedule: Q04DX003 (ip), vehicle: saline 94 % of control | [17] 97 % of control | dose: 200.0 mg/kg/injection, schedule: Q04DX003 (ip), vehicle: saline 96 % of control | [18] 92 % of control | dose: 400.0 mg/kg/injection, schedule: Q04DX003 (ip), vehicle: saline 100 % of control

N#Cc1ccc(S(N)(=O)=O)cc1
inactive: [16] 100 % of control | dose: 100.0 mg/kg/injection, schedule: Q01DX009 (ip), vehicle: acetone 98 % of control | [9] 96 % of control | [17] 94 % of control | [10] 94 % of control | [18] 120 % of control | dose: 400.0 mg/kg/injection, schedule: Q04DX003 (ip), vehicle: acetone 100 % of control

FC(F)(F)c1cccc(NC(=S)NNC(=S)NNc2ccccc2)c1
inactive: [13] 101 % of control | [14] 101 % of control | [15] 101 % of control

O=C(c1ccccc1)C1C(C(=O)c2ccccc2)N1Cc1ccccc1 (stereo not given)
inactive: [1] 100 % of control | [21] 96 % of control and 93 % of control | [2] 101 % of control | [22] 96 % of control and 91 % of control | dose: 400.0 mg/kg/injection, schedule: Q01DX009 (ip), vehicle: Klucel (hydroxypropylcellulose) (HPC) 97 % of control | [23] 93 % of control and 100 % of control

CC[n+]1ccc(/C=C\c2c(Cl)cccc2Cl)cc1
inactive: dose: 12.5 mg/kg/injection, schedule: Q01DX009 (ip), vehicle: Klucel (hydroxypropylcellulose) (HPC) 100 % of control | dose: 25.0 mg/kg/injection, schedule: Q01DX009 (ip), vehicle: Klucel (hydroxypropylcellulose) (HPC) 100 % of control | [21] 100 % of control | [22] 100 % of control | [23] 112 % of control

COc1ccc2c(OC)c3ccoc3nc2c1OC
inactive: [11] 97 % of control | [12] 100 % of control

CC(C)C1c2ccccc2C(=O)C1C(N)=O (stereo not given)
inactive: dose: 100.0 mg/kg/injection, schedule: Q01DX001 (ip), vehicle: carboxymethylcellulose (CMC) 90 % of control | dose: 200.0 mg/kg/injection, schedule: Q01DX001 (ip), vehicle: carboxymethylcellulose (CMC) 100 % of control | dose: 400.0 mg/kg/injection, schedule: Q01DX001 (ip), vehicle: carboxymethylcellulose (CMC) 93 % of control

CCOC(=O)C1CCC/C1=N\N=C(N)N (stereo not given) (tested in a mixture with another compound)
inactive: dose: 15.0 mg/kg/injection, schedule: Q01DX Z (ip), vehicle: methylcellulose (MC) 95 % of control | dose: 30.0 mg/kg/injection, schedule: Q01DX Z (ip), vehicle: methylcellulose (MC) 102 % of control | dose: 60.0 mg/kg/injection, schedule: Q01DX Z (ip), vehicle: methylcellulose (MC) 104 % of control | dose: 60.0 mg/kg/injection, schedule: Q01DX Z (oral), vehicle: methylcellulose (MC) 86 % of control | dose: 120.0 mg/kg/injection, schedule: Q01DX Z (ip), vehicle: methylcellulose (MC) 97 % of control | dose: 120.0 mg/kg/injection, schedule: Q01DX Z (oral), vehicle: methylcellulose (MC) 94 % of control | dose: 240.0 mg/kg/injection, schedule: Q01DX Z (oral), vehicle: methylcellulose (MC) 92 % of control

— PubChem BioAssay AID248 (DTP/NCI, 2004)
